# Measurements taken from ChEMBL document CHEMBL5465560, “Selectivity Literature for EUbOPEN Chemogenomic Library” (2024).
# Tests used:
# [1] = molecular target: NT-3 growth factor receptor (Homo sapiens, UniProt Q16288); assay: Selectivity interaction (KinomeScan (DiscoverX)) EUB0000695a NTRK3; details: at 100 nM
# [2] = molecular target: Insulin receptor-related protein (Homo sapiens) (UniProt P14616); assay: Selectivity interaction (KinomeScan (DiscoverX)) EUB0000229b INSRR; details: at 10 µM
# Insulin receptor-related protein (Homo sapiens), sequence (P14616 27-742 limits assumed): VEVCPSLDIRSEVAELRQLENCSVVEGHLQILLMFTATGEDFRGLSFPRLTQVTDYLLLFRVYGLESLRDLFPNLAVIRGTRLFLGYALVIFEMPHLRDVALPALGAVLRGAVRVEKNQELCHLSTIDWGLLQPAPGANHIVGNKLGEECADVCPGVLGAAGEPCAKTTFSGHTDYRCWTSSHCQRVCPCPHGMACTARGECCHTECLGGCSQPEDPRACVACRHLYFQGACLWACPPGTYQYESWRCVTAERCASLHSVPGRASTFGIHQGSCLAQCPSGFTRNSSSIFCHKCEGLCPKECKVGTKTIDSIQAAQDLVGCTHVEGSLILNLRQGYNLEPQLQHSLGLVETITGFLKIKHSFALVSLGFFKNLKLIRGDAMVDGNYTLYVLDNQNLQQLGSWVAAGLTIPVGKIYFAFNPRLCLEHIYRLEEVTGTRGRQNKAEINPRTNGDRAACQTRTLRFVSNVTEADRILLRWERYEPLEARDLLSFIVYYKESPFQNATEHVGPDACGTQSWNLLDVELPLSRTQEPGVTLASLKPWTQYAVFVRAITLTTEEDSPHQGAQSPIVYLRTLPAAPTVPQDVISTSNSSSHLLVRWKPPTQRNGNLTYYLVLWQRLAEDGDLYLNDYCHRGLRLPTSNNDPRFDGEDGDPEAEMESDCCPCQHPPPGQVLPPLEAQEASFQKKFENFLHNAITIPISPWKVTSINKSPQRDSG
# Insulin receptor-related protein (Homo sapiens), sequence (P14616 747-1297 limits assumed): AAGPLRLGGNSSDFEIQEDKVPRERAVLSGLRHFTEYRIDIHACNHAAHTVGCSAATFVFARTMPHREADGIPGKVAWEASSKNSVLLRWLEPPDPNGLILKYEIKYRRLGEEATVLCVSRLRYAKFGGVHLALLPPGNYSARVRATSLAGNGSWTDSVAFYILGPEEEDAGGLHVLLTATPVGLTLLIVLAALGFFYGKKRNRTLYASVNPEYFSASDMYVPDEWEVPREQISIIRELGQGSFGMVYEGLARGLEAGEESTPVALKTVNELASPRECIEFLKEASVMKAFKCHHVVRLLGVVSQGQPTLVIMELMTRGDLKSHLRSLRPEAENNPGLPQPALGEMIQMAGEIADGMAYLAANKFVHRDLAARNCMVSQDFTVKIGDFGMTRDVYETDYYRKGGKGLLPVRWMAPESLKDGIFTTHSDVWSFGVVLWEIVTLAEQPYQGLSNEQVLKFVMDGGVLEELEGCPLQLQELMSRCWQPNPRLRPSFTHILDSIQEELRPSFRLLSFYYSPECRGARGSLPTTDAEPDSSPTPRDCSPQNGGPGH
# [3] = molecular target: Mitotic checkpoint serine/threonine-protein kinase BUB1 (Homo sapiens, UniProt O43683); assay: Selectivity interaction (KinomeScan (DiscoverX)) EUB0000229b BUB1; details: at 10 µM
# Mitotic checkpoint serine/threonine-protein kinase BUB1, sequence (O43683 whole entry, looked up): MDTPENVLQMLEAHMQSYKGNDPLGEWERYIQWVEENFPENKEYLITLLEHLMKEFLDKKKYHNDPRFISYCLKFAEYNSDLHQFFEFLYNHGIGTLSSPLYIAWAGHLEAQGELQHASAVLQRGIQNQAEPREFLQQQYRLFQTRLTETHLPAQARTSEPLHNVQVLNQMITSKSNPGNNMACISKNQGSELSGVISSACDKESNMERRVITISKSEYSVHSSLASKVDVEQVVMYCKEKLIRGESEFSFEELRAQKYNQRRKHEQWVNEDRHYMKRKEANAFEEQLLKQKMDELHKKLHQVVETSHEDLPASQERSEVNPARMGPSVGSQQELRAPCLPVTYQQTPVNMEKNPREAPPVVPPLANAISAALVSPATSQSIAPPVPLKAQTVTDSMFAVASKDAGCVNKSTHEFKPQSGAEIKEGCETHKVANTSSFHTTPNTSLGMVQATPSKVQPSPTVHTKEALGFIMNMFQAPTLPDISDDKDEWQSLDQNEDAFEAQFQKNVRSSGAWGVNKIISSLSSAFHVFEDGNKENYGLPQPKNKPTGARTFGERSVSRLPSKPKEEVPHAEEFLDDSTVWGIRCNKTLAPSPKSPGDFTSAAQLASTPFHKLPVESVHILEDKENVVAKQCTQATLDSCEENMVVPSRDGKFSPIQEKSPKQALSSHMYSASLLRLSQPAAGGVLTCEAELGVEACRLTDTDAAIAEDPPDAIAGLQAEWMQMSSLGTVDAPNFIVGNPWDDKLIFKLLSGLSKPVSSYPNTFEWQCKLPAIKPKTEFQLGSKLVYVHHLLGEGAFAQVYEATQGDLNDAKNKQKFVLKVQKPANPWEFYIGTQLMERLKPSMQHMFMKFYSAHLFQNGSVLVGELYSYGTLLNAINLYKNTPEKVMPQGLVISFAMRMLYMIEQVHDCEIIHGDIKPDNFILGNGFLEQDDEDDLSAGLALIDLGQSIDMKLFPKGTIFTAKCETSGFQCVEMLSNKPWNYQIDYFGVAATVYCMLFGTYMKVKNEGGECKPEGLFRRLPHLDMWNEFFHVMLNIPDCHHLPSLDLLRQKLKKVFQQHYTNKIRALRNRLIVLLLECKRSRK
# [4] = molecular target: T1, Serine/threonine-protein kinase Nek1 (Homo sapiens) (UniProt Q96PY6); assay: Selectivity interaction (KinomeScan (DiscoverX)) EUB0000045b NEK1
# T1 sequence (whole entry): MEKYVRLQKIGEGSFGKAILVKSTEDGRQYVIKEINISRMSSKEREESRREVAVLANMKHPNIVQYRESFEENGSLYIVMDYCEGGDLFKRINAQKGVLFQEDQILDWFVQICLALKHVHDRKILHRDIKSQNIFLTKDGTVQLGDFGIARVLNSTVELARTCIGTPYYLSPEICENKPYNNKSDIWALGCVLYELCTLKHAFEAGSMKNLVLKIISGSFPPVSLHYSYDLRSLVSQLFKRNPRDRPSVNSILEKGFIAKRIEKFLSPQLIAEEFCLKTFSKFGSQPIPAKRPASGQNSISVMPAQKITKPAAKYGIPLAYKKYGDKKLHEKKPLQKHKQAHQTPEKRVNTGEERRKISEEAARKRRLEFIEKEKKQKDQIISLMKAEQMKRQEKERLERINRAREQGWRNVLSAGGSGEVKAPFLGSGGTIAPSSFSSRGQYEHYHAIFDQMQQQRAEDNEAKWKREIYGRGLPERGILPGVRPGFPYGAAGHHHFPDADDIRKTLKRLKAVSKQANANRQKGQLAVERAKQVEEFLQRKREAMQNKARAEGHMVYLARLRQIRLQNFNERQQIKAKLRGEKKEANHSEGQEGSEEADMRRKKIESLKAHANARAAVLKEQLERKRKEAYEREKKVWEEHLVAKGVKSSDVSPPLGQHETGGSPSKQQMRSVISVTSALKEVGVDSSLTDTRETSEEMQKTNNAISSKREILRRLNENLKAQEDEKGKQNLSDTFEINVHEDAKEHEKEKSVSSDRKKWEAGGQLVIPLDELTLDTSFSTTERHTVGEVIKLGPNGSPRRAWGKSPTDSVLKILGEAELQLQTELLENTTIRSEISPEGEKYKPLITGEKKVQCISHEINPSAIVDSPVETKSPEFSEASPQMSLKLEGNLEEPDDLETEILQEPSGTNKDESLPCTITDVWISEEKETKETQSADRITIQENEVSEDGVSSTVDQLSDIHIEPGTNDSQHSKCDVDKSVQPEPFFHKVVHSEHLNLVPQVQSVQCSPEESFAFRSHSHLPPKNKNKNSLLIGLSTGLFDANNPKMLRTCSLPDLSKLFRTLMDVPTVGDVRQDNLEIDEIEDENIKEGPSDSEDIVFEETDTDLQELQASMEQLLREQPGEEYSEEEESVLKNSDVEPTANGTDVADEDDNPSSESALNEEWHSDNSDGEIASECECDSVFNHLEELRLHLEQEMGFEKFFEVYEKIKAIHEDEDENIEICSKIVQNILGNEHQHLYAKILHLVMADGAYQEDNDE
# [5] = molecular target: T2, Phosphatidylinositol 4,5-bisphosphate 3-kinase catalytic subunit delta isoform (Homo sapiens) (UniProt O00329); assay: Selectivity interaction (ActivX KiNativ screen (ex vivo kinase selectivity in human PBMCs)) EUB0001619a PIK3CD; assay type: cell-based; details: PBMC, at 1 µM
# T2 sequence (whole entry): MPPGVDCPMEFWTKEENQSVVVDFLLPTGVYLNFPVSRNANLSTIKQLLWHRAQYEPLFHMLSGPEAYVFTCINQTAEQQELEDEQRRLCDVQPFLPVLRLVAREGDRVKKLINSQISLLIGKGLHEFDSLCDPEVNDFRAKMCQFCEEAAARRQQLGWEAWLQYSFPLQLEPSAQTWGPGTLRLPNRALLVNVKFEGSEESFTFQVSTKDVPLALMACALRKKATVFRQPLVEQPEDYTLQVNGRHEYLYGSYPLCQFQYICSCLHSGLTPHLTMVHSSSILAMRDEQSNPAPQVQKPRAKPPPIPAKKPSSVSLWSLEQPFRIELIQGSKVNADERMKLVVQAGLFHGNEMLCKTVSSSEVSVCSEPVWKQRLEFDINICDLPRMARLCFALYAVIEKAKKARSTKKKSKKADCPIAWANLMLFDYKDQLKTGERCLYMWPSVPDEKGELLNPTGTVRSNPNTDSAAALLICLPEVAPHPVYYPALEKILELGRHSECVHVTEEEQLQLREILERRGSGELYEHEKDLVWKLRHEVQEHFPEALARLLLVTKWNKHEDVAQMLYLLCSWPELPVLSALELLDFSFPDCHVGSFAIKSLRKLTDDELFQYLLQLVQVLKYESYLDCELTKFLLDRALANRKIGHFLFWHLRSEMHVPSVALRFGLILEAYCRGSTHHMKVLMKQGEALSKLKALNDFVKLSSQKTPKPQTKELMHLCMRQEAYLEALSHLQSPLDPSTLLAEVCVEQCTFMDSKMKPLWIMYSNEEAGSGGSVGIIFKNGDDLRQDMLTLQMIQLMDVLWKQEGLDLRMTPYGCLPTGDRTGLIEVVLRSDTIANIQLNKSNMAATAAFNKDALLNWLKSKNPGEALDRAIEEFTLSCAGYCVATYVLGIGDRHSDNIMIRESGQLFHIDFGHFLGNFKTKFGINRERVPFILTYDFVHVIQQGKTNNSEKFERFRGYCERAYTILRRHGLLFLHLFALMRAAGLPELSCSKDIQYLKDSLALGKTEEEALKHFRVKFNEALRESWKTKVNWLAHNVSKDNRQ
# [6] = molecular target: T3, Mitogen-activated protein kinase 13 (Homo sapiens) (UniProt O15264); assay: Selectivity interaction (SelectScreen profiling (Invitrogen)) EUB0000607a MAPK13; details: at 2 µM
# T3 sequence (whole entry): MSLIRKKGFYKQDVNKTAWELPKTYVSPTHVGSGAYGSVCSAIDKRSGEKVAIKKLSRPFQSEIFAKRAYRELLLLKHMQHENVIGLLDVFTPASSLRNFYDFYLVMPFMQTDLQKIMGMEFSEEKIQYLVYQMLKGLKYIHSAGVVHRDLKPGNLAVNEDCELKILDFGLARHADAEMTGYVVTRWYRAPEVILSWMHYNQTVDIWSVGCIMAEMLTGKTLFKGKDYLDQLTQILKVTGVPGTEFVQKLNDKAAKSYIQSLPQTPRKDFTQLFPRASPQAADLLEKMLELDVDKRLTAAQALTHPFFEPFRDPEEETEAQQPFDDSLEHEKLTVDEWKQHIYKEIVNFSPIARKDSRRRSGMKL
# NT-3 growth factor receptor, sequence (Q16288 32-839 limits assumed): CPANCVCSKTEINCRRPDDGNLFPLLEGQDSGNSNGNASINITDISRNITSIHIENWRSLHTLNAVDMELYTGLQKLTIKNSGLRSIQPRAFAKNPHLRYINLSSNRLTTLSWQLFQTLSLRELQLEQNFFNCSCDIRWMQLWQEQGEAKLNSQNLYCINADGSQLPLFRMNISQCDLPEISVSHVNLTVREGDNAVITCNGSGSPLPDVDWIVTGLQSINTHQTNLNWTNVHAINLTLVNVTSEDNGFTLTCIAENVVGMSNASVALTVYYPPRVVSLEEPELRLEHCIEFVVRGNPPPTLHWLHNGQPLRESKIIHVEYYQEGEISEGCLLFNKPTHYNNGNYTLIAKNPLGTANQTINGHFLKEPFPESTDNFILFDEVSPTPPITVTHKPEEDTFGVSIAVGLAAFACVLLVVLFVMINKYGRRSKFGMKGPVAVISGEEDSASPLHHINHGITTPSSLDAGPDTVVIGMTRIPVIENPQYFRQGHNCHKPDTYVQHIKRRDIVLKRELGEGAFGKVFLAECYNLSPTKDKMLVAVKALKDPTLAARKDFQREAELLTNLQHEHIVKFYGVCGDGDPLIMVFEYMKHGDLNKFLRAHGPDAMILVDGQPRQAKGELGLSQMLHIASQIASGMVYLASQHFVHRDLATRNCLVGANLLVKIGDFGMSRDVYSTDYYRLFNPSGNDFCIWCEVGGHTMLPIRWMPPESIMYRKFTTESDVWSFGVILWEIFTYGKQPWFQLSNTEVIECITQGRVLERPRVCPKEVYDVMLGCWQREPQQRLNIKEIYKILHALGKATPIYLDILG
smiles,measurement,setting,value
Cc1cc(F)c(C(=O)Nc2cccc(-c3nncn3C(C)C)n2)cc1-n1cnc(C2CC2)c1,% of control,[1],86%
COc1cc(N(C)c2ccnc3ccc(C(F)(F)F)cc23)cc(OC)c1OC,% binding,[2],76%
same,% binding,[3],98%
C=CC(=O)Nc1cc(-n2c(=O)ccc3cnc4ccc(-c5ccc(NS(C)(=O)=O)cc5)cc4c32)ccc1C,% of control,[4]; at 1 µM,100%
same,% of control,[4]; at 10 µM,81%
N#Cc1cccc(-c2c[nH]c3ncnc(N4CCOCC4)c23)c1,% of inhibition,[5],-12%
CNC(=O)Nc1ccc(-c2nc(N3CC4CCC(C3)O4)c3cnn(C4CCC5(CC4)OCCO5)c3n2)cc1,% of inhibition,[6],4%
